Experimental data: US12398107B2, “Fungicidal nitroanilino substituted pyrazoles” (FMC Corporation, priority 2018, dated 2025)

Legend:
Format in all cases: in vivo
Septoria tritici = assay: Test A: wheat leaf blotch, preventive spray on wheat seedlings; details: 100 = 100% disease control, 0 = no control relative to controls; for Test A disease control rating (wheat leaf blotch) / pest or weed control at 50 ppm: 50 ppm
In short: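 Compounds were suspended in acetone/water (50/50) with 250 ppm PEG400 and sprayed to run-off on wheat seedlings. The next day the seedlings were inoculated with Septoria tritici spores, held 48 h at 24 °C in saturated humidity, then 17 days at 20 °C. Disease control was rated 0–100 relative to controls.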

[1] = system: Puccinia recondita f. sp. tritici; assay: Test B: wheat leaf rust, preventive spray on wheat seedlings; details: 100 = 100% disease control, 0 = no control relative to controls; for Test B disease control rating (wheat leaf rust) / pest or weed control at 50 ppm: 50 ppm
In short: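 Compounds in acetone/water (50/50) with 250 ppm PEG400, sprayed to run-off on wheat seedlings at stated ppm; inoculated next day with P. recondita spores. Held 24 h saturated at 20° C., then 7 days in growth chamber at 20° C.; rating 0–100 = % disease control vs controls.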

[2] = system: Blumeria graminis f. sp. tritici; assay: Test C: wheat powdery mildew, preventive spray on wheat seedlings; details: rated after 8 days, 100 = 100% disease control, 0 = no control; for Test C disease control rating (wheat powdery mildew) / pest or weed control at 50 ppm: 50 ppm
In short: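 Compound dissolved in acetone (3% of final volume), then suspended in 50/50 acetone/water with 250 ppm PEG400 and sprayed to run-off on wheat seedlings. Inoculated next day with B. graminis f. sp. tritici spore dust, kept 8 days at 20° C; visual rating, 100 = full control, 0 = none, relative to controls.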

Phakopsora pachyrhizi = assay: Test D: Asian soybean rust, preventive spray on soybean seedlings; details: 100 = 100% disease control, 0 = no control; for Test D disease control rating (Asian soybean rust) / pest or weed control at 50 ppm: 50 ppm
In short: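 Soybean seedlings sprayed to run-off with compound suspension (ppm, in 50/50 acetone/water with 250 ppm PEG400), inoculated next day with P. pachyrhizi spores, held 24 h saturated at 22°C then 8 days at 22°C. Visual rating 0-100% disease control relative to controls.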

Botrytis cinerea = assay: Test E: tomato Botrytis, preventive spray on tomato seedlings; details: 100 = 100% disease control, 0 = no control; for Test E disease control rating (tomato Botrytis) / pest or weed control at 50 ppm: 50 ppm
In short: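 Tomato seedlings sprayed to run-off with compound (ppm) in acetone/water with 250 ppm PEG400, then inoculated next day with B. cinerea spores. Held 48 h at 20 °C in saturated atmosphere, then 3 days at 24 °C. Visual rating 0–100% disease control relative to untreated controls.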

Alternaria solani = assay: Test F: tomato early blight, preventive spray on tomato seedlings; details: 100 = 100% disease control, 0 = no control; for Test F disease control rating (tomato early blight) / pest or weed control at 50 ppm: 50 ppm
In short: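 Compounds in acetone/water (50/50) with 250 ppm PEG400, dosed in ppm, sprayed to run-off on tomato seedlings; next day inoculated with A. solani spores. Held 48 h saturated at 27° C, then 3 days at 20° C; visual rating 0–100% disease control relative to controls.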

[3] = Zymoseptoria tritici, read-out: Test A disease control rating (wheat leaf blotch)
[4] = read-out: Test B disease control rating (wheat leaf rust)
[5] = Blumeria graminis, 192 h, read-out: Test C disease control rating (wheat powdery mildew)
[6] = Phakopsora pachyrhizi, read-out: Test D disease control rating (Asian soybean rust)
[7] = Botrytis cinerea, read-out: Test E disease control rating (tomato Botrytis)
[8] = Alternaria solani, read-out: Test F disease control rating (tomato early blight)

## COc1cc(F)c(Nc2c(-c3ccc(Cl)cc3Cl)c(C)nn2C)c([N+](=O)[O-])c1 [Compound 138]
Septoria tritici
  Test A disease control rating (wheat leaf blotch): 100%
[1]
  Test B disease control rating (wheat leaf rust): 100%
[2]
  Test C disease control rating (wheat powdery mildew): 93%
Phakopsora pachyrhizi
  Test D disease control rating (Asian soybean rust): 67%
Botrytis cinerea
  Test E disease control rating (tomato Botrytis): 99%
Alternaria solani
  Test F disease control rating (tomato early blight): 100%

## Cc1nn(C)c(Nc2ccccc2[N+](=O)[O-])c1-c1ccc(C#N)cc1F [Compound 134]
Septoria tritici
  Test A disease control rating (wheat leaf blotch): 100%
[1]
  Test B disease control rating (wheat leaf rust): 23%
[2]
  Test C disease control rating (wheat powdery mildew): 71%
Phakopsora pachyrhizi
  Test D disease control rating (Asian soybean rust): 0%
Botrytis cinerea
  Test E disease control rating (tomato Botrytis): 70%
Alternaria solani
  Test F disease control rating (tomato early blight): 0%

## Cc1cc(F)c(Nc2c(-c3ccc(F)cc3F)c(C)nn2C)c([N+](=O)[O-])c1 [Compound 178]
Septoria tritici
  Test A disease control rating (wheat leaf blotch): 100%
[1]
  Test B disease control rating (wheat leaf rust): 100%
[2]
  Test C disease control rating (wheat powdery mildew): 99%
Phakopsora pachyrhizi
  Test D disease control rating (Asian soybean rust): 97%
Botrytis cinerea
  Test E disease control rating (tomato Botrytis): 100%
Alternaria solani
  Test F disease control rating (tomato early blight): 100%

## COc1ccc(Nc2c(-c3ccc(F)cc3Br)c(C)nn2C)c([N+](=O)[O-])c1 [Compound 52]
Septoria tritici
  Test A disease control rating (wheat leaf blotch): 100%
[1]
  Test B disease control rating (wheat leaf rust): 100%
[2]
  Test C disease control rating (wheat powdery mildew): 90%
Phakopsora pachyrhizi
  Test D disease control rating (Asian soybean rust): 59%
Botrytis cinerea
  Test E disease control rating (tomato Botrytis): 99%
Alternaria solani
  Test F disease control rating (tomato early blight): 94%

## Cc1nn(C)c(Nc2c(F)cc(F)cc2[N+](=O)[O-])c1-c1ccc(F)cc1Br [Compound 51]
Septoria tritici
  Test A disease control rating (wheat leaf blotch): 100%
[1]
  Test B disease control rating (wheat leaf rust): 100%
[2]
  Test C disease control rating (wheat powdery mildew): 100%
Phakopsora pachyrhizi
  Test D disease control rating (Asian soybean rust): 79%
Botrytis cinerea
  Test E disease control rating (tomato Botrytis): 98%
Alternaria solani
  Test F disease control rating (tomato early blight): 99%

## Cc1nn(C)c(Nc2ccccc2[N+](=O)[O-])c1-c1c(F)cc(F)cc1F [Compound 149]
Septoria tritici
  Test A disease control rating (wheat leaf blotch): 100%
[1]
  Test B disease control rating (wheat leaf rust): 80%
[2]
  Test C disease control rating (wheat powdery mildew): 97%
Phakopsora pachyrhizi
  Test D disease control rating (Asian soybean rust): 0%
Botrytis cinerea
  Test E disease control rating (tomato Botrytis): 99%
Alternaria solani
  Test F disease control rating (tomato early blight): 96%

## Cc1nn(C)c(Nc2c(F)cccc2[N+](=O)[O-])c1-c1c(F)cccc1Cl [Compound 25]
Septoria tritici
  Test A disease control rating (wheat leaf blotch): 100%
[1]
  Test B disease control rating (wheat leaf rust): 100%
[2]
  Test C disease control rating (wheat powdery mildew): 99%
Phakopsora pachyrhizi
  Test D disease control rating (Asian soybean rust): 98%
Botrytis cinerea
  Test E disease control rating (tomato Botrytis): 100%
Alternaria solani
  Test F disease control rating (tomato early blight): 98%

## COc1cc(F)c(Nc2c(-c3ccc(C#N)cc3Cl)c(C)nn2C)c([N+](=O)[O-])c1 [Compound 166]
Septoria tritici
  Test A disease control rating (wheat leaf blotch): 99%
[1]
  Test B disease control rating (wheat leaf rust): 100%
[2]
  Test C disease control rating (wheat powdery mildew): 98%
Phakopsora pachyrhizi
  Test D disease control rating (Asian soybean rust): 98%
Botrytis cinerea
  Test E disease control rating (tomato Botrytis): 99%
Alternaria solani
  Test F disease control rating (tomato early blight): 100%

## COc1cc(F)c(Nc2c(-c3ccc(F)cc3Cl)c(C)nn2C)c([N+](=O)[O-])c1 [Compound 85]
Septoria tritici
  Test A disease control rating (wheat leaf blotch): 100%
[1]
  Test B disease control rating (wheat leaf rust): 100%
[2]
  Test C disease control rating (wheat powdery mildew): 97%
Phakopsora pachyrhizi
  Test D disease control rating (Asian soybean rust): 96%
Botrytis cinerea
  Test E disease control rating (tomato Botrytis): 94%
Alternaria solani
  Test F disease control rating (tomato early blight): 98%

## Cc1nn(C)c(Nc2ccc(F)cc2[N+](=O)[O-])c1-c1ccc(F)cc1Cl [Compound 111, 4-(2-chloro-4-fluorophenyl)-N-(4-fluoro-2-nitrophenyl)-1,3-dimethyl-1H-pyrazol-5-amine]
Septoria tritici; [3]
  pest or weed control at 50 ppm: 100%
[1]; [4]
  pest or weed control at 50 ppm: 99%
[2]; [5]
  pest or weed control at 50 ppm: 99%
Phakopsora pachyrhizi; [6]
  pest or weed control at 50 ppm: 0%
Botrytis cinerea; [7]
  pest or weed control at 50 ppm: 100%
Alternaria solani; [8]
  pest or weed control at 50 ppm: 93%

## CCc1nn(C)c(Nc2ccc(OC)cc2[N+](=O)[O-])c1-c1ccc(F)cc1Cl [Compound 173]
Septoria tritici
  Test A disease control rating (wheat leaf blotch): 100%
[1]
  Test B disease control rating (wheat leaf rust): 100%
[2]
  Test C disease control rating (wheat powdery mildew): 98%
Phakopsora pachyrhizi
  Test D disease control rating (Asian soybean rust): 0%
Botrytis cinerea
  Test E disease control rating (tomato Botrytis): 98%
Alternaria solani
  Test F disease control rating (tomato early blight): 93%

## COc1ccc(-c2c(C)nn(C)c2Nc2c(F)cc(Br)cc2[N+](=O)[O-])c(Cl)c1 [Compound 182]
Septoria tritici
  Test A disease control rating (wheat leaf blotch): 100%
[1]
  Test B disease control rating (wheat leaf rust): 99%
[2]
  Test C disease control rating (wheat powdery mildew): 76%
Phakopsora pachyrhizi
  Test D disease control rating (Asian soybean rust): 0%
Botrytis cinerea
  Test E disease control rating (tomato Botrytis): 100%
Alternaria solani
  Test F disease control rating (tomato early blight): 99%

## Cc1nn(C)c(Nc2c(F)cccc2[N+](=O)[O-])c1-c1ccc(C#N)cc1Cl [Compound 113, 3-chloro-4-[5-[(2-fluoro-6-nitrophenyl)amino]-1,3-dimethyl-1H-pyrazol-4-yl]benzonitrile]
Septoria tritici; [3]
  pest or weed control at 50 ppm: 100%
[1]; [4]
  pest or weed control at 50 ppm: 99%
[2]; [5]
  pest or weed control at 50 ppm: 97%
Phakopsora pachyrhizi; [6]
  pest or weed control at 50 ppm: 13%
Botrytis cinerea; [7]
  pest or weed control at 50 ppm: 99%
Alternaria solani; [8]
  pest or weed control at 50 ppm: 99%

## Cc1cc(F)c(Nc2c(-c3ccc(F)cc3Br)c(C)nn2C)c([N+](=O)[O-])c1 [Compound 40]
Septoria tritici
  Test A disease control rating (wheat leaf blotch): 100%
[1]
  Test B disease control rating (wheat leaf rust): 100%
[2]
  Test C disease control rating (wheat powdery mildew): 100%
Phakopsora pachyrhizi
  Test D disease control rating (Asian soybean rust): 82%
Botrytis cinerea
  Test E disease control rating (tomato Botrytis): 98%
Alternaria solani
  Test F disease control rating (tomato early blight): 100%

## CCc1nn(C)c(Nc2c(F)cc(Br)cc2[N+](=O)[O-])c1-c1ccc(F)cc1F [Compound 171]
Septoria tritici
  Test A disease control rating (wheat leaf blotch): 100%
[1]
  Test B disease control rating (wheat leaf rust): 91%
[2]
  Test C disease control rating (wheat powdery mildew): 99%
Phakopsora pachyrhizi
  Test D disease control rating (Asian soybean rust): 0%
Botrytis cinerea
  Test E disease control rating (tomato Botrytis): 97%
Alternaria solani
  Test F disease control rating (tomato early blight): 88%

## Cc1cc(Cl)c(Nc2c(-c3ccc(F)cc3Br)c(C)nn2C)c([N+](=O)[O-])c1 [Compound 181]
Septoria tritici
  Test A disease control rating (wheat leaf blotch): 100%
[1]
  Test B disease control rating (wheat leaf rust): 100%
[2]
  Test C disease control rating (wheat powdery mildew): 99%
Phakopsora pachyrhizi
  Test D disease control rating (Asian soybean rust): 78%
Botrytis cinerea
  Test E disease control rating (tomato Botrytis): 99%
Alternaria solani
  Test F disease control rating (tomato early blight): 99%

## Cc1nn(C)c(Nc2c(Cl)cccc2[N+](=O)[O-])c1-c1c(F)cc(F)cc1Cl [Compound 152]
Septoria tritici
  Test A disease control rating (wheat leaf blotch): 99%
[1]
  Test B disease control rating (wheat leaf rust): 100%
[2]
  Test C disease control rating (wheat powdery mildew): 98%
Phakopsora pachyrhizi
  Test D disease control rating (Asian soybean rust): 91%
Botrytis cinerea
  Test E disease control rating (tomato Botrytis): 99%
Alternaria solani
  Test F disease control rating (tomato early blight): 92%

## Cc1cc(F)c(Nc2c(-c3ccc(F)cc3Cl)c(C)nn2C)c([N+](=O)[O-])c1 [Compound 93, 4-(2-chloro-4-fluorophenyl)-N-(2-fluoro-4-methyl-6-nitrophenyl)-1,3-dimethyl-1H-pyrazol-5-amine]
Septoria tritici; Zymoseptoria tritici, 10 ppm, read-out: Test A disease control rating (wheat leaf blotch)
  pest or weed control at 10 ppm: 99%
Septoria tritici; [3]
  pest or weed control at 50 ppm: 100%
[1]; 10 ppm, read-out: Test B disease control rating (wheat leaf rust)
  pest or weed control at 10 ppm: 100%
[1]; [4]
  pest or weed control at 50 ppm: 100%
[2]; Blumeria graminis, 192 h, 10 ppm, read-out: Test C disease control rating (wheat powdery mildew)
  pest or weed control at 10 ppm: 97%
[2]; [5]
  pest or weed control at 50 ppm: 99%
Phakopsora pachyrhizi; Phakopsora pachyrhizi, 10 ppm, read-out: Test D disease control rating (Asian soybean rust)
  pest or weed control at 10 ppm: 87%
Phakopsora pachyrhizi; [6]
  pest or weed control at 50 ppm: 100%
Botrytis cinerea; Botrytis cinerea, 10 ppm, read-out: Test E disease control rating (tomato Botrytis)
  pest or weed control at 10 ppm: 99%
Botrytis cinerea; [7]
  pest or weed control at 50 ppm: 100%
Alternaria solani; Alternaria solani, 10 ppm, read-out: Test F disease control rating (tomato early blight)
  pest or weed control at 10 ppm: 99%
Alternaria solani; [8]
  pest or weed control at 50 ppm: 99%
